# From paper PMC10914731, “Homo-BacPROTAC-induced degradation of ClpC1 as a strategy against drug-resistant mycobacteria” (Nature Communications, 2024)
# Several values for one entry are separate records, joined by “and”; a condition that tells them apart may be missing. Equal values may be shown once. Read-outs that look alike come from different tables or passages of the source. *1 amine or outer side, *2 acyl side, *3 side chain or, on linkers, in order; H or OH if unused. Where a SMILES comes first, the peptide text is derived from it. [ ]: non-standard residue; d: D form. NMeTrp(1-Me) = CN[C@@H](Cc1cn(C)c2ccccc12)C(=O)O; X4 = C=CCO[C@H](c1ccccc1)[C@H](N[*:1])C(=O)[*:2]; NMeLeu(5-OH,4R) = CN[C@@H](C[C@@H](C)CO)C(=O)O; Phe(βR-OMe) = CO[C@H](c1ccccc1)[C@H](N)C(=O)O; Trp(1-Me) = Cn1cc(C[C@H](N)C(=O)O)c2ccccc21; NMeL = CN[C@@H](CC(C)C)C(=O)O; Pra = C#CC[C@H](N)C(=O)O
# Tests used:
# [1] = target: ClpC1 NTD protein (M. tuberculosis) (Mycobacterium tuberculosis, UniProt P9WPC9); assay: biochemical; type: binding
# ClpC1 NTD protein (M. tuberculosis), sequence (P9WPC9 1-156, looked up, natural form): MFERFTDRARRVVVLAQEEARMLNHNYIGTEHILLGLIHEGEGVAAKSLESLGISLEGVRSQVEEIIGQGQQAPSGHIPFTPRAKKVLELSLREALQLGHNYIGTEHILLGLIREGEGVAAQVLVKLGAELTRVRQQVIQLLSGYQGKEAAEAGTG
# in vitro = conditions: human; for efflux ratio: Caco-2
# Outline: (§1)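 Values are bidirectional Caco-2 apparent permeabilities, P(A−B) and P(B−A), given in 10^-6 cm s-1. The efflux ratio divides P(B−A) by P(A−B), and intrinsic permeability averages the two directions.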
# Caco-2 monolayers = assay: in vitro; conditions: human, Caco-2
# Outline: as §1
# [2] = type: in vitro ADME, Mice; conditions: for Microsomal Stability Mice: clearance in microsomes
# Procedure: (§2) The kinetics of compound degradation in liver microsomes is assessed in an assay with 1 µmol/l of compound and 0.5 mg/ml liver microsomes in a medium of 100 mM Tris-HCl pH 7.5, 6.5 mM MgCl2 and 1 mM NADPH at 37 °C. The reaction is stopped at multiple time points by adding acetonitrile. After centrifugation, the compound concentration is measured in the supernatants by high-performance liquid chromatography (HPLC) tandem mass spectrometry (MS/MS). The results are fitted to a first-order decay and the half-lives are converted to clearance (stated as % of the liver blood flow (%Qh)) using the well-stirred liver model.
# [3] = type: in vitro ADME, Rat; conditions: for Microsomal Stability Rat: clearance in microsomes
# Procedure: as §2
# [4] = Microsomal stability, human; type: in vitro ADME; conditions: for Microsomal Stability Human: clearance in microsomes
# Procedure: as §2
# [5] = Hepatocyte stability, mice; type: in vitro ADME; conditions: mouse, pH 7.4
# Outline: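 Parent depletion by HPLC-MS/MS in mouse hepatocyte suspension (50% serum, ~1 million cells/mL) with 1 µM compound over up to 6 h at 37 °C. Half-lives were scaled to % Qh using the well-stirred liver model.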
# [6] = type: in vitro ADME, Rat; conditions: rat, pH 7.4
# [7] = type: in vitro ADME, Human; conditions: human, pH 7.4
# [8] = test system: M. tuberculosis H37Rv (ATCC 27294); assay: microbe, parasite or virus in culture; type: cell-based
# Msm 607 = assay: microbe, parasite or virus in culture; type: cell-based
# Msm 700084 = assay: microbe, parasite or virus in culture; type: cell-based
# [9] = Mycobacterium tuberculosis, Mtb H37Rv (Supplementary Table 2), read-out: MIC Mtb
# [10] = Mycobacterium tuberculosis, single determinations, read-out: Mtb MIC
# [11] = Mycolicibacterium smegmatis, 607, read-out: MIC Msm 607
# [12] = Mycolicibacterium smegmatis, 607, read-out: Msm 607 MIC, single determinations
# [13] = Mycolicibacterium smegmatis, 700084, single determinations, read-out: Msm 700084 MIC
# [14] = Mycolicibacterium smegmatis, 700084, read-out: MIC Msm 700084
# [15] = SPR, individual measurements (source data), read-out: KD ClpC1-NTD
# [16] = SPR, read-out: ClpC1-NTD KD Mean ± SD
# [17] = Mycobacterium tuberculosis, M. tuberculosis H37Rv strain, read-out: MIC Mtb H37Rv Mean ± SD
# [18] = individual measurements (source data), read-out: Mtb MIC
smiles,measurement,setting,value
"C=CCO[C@H](c1ccccc1)[C@@H]1NC(=O)[C@H](C)NC(=O)[C@H](C[C@@H](C)CO)N(C)C(=O)[C@H](Cc2cn(C)c3ccccc23)NC(=O)[C@H](C(C)C)NC(=O)[C@H](CC(C)C)N(C)C(=O)[C@H](C(C)C)NC1=O [Compound 14] (cyclo(A[X4]V[NMeL]V[Trp(1-Me)][NMeLeu(5-OH,4R)]))",Kd,"[1]; SPR (Supplementary Table 1), read-out: KD ClpC1-NTD Mean ± SD",0.01 ± 0.001 µM
same,Kd,"[1]; SPR, single independent measurements, read-out: KD ClpC1-NTD",0.00931 µM and 0.0107 µM
same,efflux ratio,in vitro,12.1
same,Papp B→A,"in vitro; Caco-2, CACO permeability PEBA",300 nm/s
same,Caco-2 Int. Perm,Caco-2 monolayers,21.7
same,Microsomal Stability Mouse QH,[2],>88.4 >88.4%
same,Microsomal Stability Mice,[2],> 88 %Qh
same,Microsomal Stability Rat QH,[3],84.3% and 84%
same,Microsomal Stability Rat,[3],84 %Qh
same,Microsomal Stability Human QH,[4],>88.4 >88.4%
same,Microsomal Stability Human,[4],> 88 %Qh
same,Hepatocyte Mice,[5],29 %Qh
same,Hepatocyte Stability Mouse QH,[5],28.905%
same,Hepatocyte Rat,[6],57 %Qh
same,Hepatocyte Stability Rat QH,[6],56.626%
same,Hepatocyte Human,[7],41 %Qh
same,Hepatocyte Stability Human QH,[7],41.006%
same,MIC,[8]; [9],3.1 µM
same,MIC,[8]; [10],3.12 µM
same,MIC,Msm 607; [11],1.6 µM
same,MIC,Msm 607; [12],1.56 µM
same,MIC,Msm 700084; [13],12.5 µM
same,MIC,Msm 700084; [14],12.5 µM
COC(c1ccccc1)C1NC(=O)C(C)NC(=O)C(CC(C)CO)N(C)C(=O)C(Cc2cn(CC=CCn3cc(CC4NC(=O)C(C(C)C)NC(=O)C(CC(C)C)N(C)C(=O)C(C(C)C)NC(=O)C(C(OC)c5ccccc5)NC(=O)C(C)NC(=O)C(CC(C)CO)N(C)C4=O)c4ccccc43)c3ccccc23)NC(=O)C(C(C)C)NC(=O)C(CC(C)C)N(C)C(=O)C(C(C)C)NC1=O (stereo not drawn) [Compound 15],Kd,[1]; [15],0.00181 µM and 0.000654 µM
same,Kd,[1]; [16],0.0012 ± 0.0008 µM
same,Caco-2 Efflux ratio,Caco-2 monolayers,0.8
same,Caco-2 Int. Perm,Caco-2 monolayers,2.0
same,Caco-2 permeability P (A-B),Caco-2 monolayers,2.2
same,Caco-2 permeability P (B-A),Caco-2 monolayers,1.8
same,Microsomal Stability Mouse QH,[2],<24.200%
same,Microsomal Stability Mice,[2],< 24 %Qh
same,Microsomal Stability Rat QH,[3],<23.100%
same,Microsomal Stability Rat,[3],< 23 %Qh
same,Microsomal Stability Human QH,[4],<24.400%
same,Microsomal Stability Human,[4],< 24 %Qh
same,Hepatocyte Mice,[5],15 %Qh
same,Hepatocyte Stability Mouse QH,[5],15.001%
same,Hepatocyte Rat,[6],6 %Qh
same,Hepatocyte Stability Rat QH,[6],6.192%
same,Hepatocyte Human,[7],12 %Qh
same,Hepatocyte Stability Human QH,[7],12.386%
same,MIC,[8]; [17],0.2 ± 0.1 µM
same,MIC,[8]; [9],0.2 ± 0.1 µM
same,MIC,[8]; [18],0.200 µM and 0.390 µM and 0.097 µM (2×)
same,MIC,Msm 607; [11],2.3 ± 0.9 µM
same,MIC,Msm 700084; [13],50 µM
same,MIC,Msm 700084; [14],50 µM
"C#CC[C@@H]1NC(=O)[C@H](CC(C)C)N(C)C(=O)[C@H](C(C)C)NC(=O)[C@H]([C@H](OC)c2ccccc2)NC(=O)[C@H](C)NC(=O)[C@H](C[C@@H](C)CO)N(C)C(=O)[C@H](Cc2cn(C)c3ccccc23)N(C)C1=O [Compound 20] (cyclo(A[Phe(βR-OMe)]V[NMeL][Pra][NMeTrp(1-Me)][NMeLeu(5-OH,4R)]))",Kd,[1]; [15],0.0141 µM and 0.0137 µM
same,Kd,[1]; [16],0.0139 ± 0.0003 µM
same,efflux ratio,in vitro,11.8
same,Papp A→B,"in vitro; Caco-2, CACO permeability PEAB",20 nm/s
same,Papp B→A,"in vitro; Caco-2, CACO permeability PEBA",360 nm/s
same,Papp A→B,"in vitro; Caco-2, Caco-2 permeability P (A-B)",28 nm/s
same,Papp B→A,"in vitro; Caco-2, Caco-2 permeability P (B-A)",285 nm/s
same,Caco-2 Int. Perm,Caco-2 monolayers,15.7
same,Influence of N-methylation on permeability,Caco-2 monolayers,>11.8
same,Permeability Correlation P (A-B),Caco-2 monolayers,> 28
same,Microsomal Stability Mouse QH,[2],>88.400%
same,Microsomal Stability Mice,[2],> 88 %Qh
same,Microsomal Stability Rat QH,[3],>87.900%
same,Microsomal Stability Rat,[3],> 88 %Qh
same,Microsomal Stability Human QH,[4],>88.400%
same,Microsomal Stability Human,[4],> 88 %Qh
same,Hepatocyte Mice,[5],59 %Qh
same,Hepatocyte Stability Mouse QH,[5],58.928%
same,Hepatocyte Rat,[6],63 %Qh
same,Hepatocyte Stability Rat QH,[6],63.002%
same,Hepatocyte Human,[7],34 %Qh
same,Hepatocyte Stability Human QH,[7],34.158%
same,MIC,[8]; [17],50 µM
same,MIC,[8]; [9],50 µM
same,MIC,"[8]; Mycobacterium tuberculosis, individual measurements (source data), read-out: Mtb MIC",50 µM
same,MIC,[8]; [10],50 µM
same,MIC,[8]; [18],50.000 µM
same,MIC,Msm 607; [11],25 µM
same,MIC,Msm 607; [12],25 µM
same,MIC,Msm 700084; [13],> 50 µM
same,MIC,Msm 700084; [14],> 50 µM
